Experimental findings from US7838674B2, “Tetracyclic lactame derivatives” (Novartis AG, priority 2007, dated 2010) are described below.

The target in one assay is human MK2 (Homo sapiens, UniProt P49137). Briefly: MAPKAPK2 kinase assay (TR-FRET, Hsp27 peptide substrate). Background: In TR-FRET formats the signal depends on donor and acceptor labels being close together.
The target in assay [1] is T1, MAPKAPK2 enzyme (HIS-MK2, Invitrogen PV4019) (Homo sapiens, UniProt P49137).
T1 construct: His; purchased Invitrogen PV4019
T1 sequence (P49137 whole entry): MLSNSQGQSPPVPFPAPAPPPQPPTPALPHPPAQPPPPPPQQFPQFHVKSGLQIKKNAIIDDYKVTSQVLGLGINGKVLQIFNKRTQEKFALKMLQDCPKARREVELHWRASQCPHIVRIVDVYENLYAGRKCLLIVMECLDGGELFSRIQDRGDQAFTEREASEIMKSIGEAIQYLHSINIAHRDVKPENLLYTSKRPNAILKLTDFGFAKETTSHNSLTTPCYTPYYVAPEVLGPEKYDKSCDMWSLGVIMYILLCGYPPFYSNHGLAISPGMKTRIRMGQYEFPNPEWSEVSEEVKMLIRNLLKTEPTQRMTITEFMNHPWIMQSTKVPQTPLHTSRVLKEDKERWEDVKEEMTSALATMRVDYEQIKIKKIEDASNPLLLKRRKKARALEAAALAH
The assay can be described thus: Alternative MAPKAPK2 assay (Caliper microfluidic mobility shift, HSP27-peptide). The assay is classed as biochemical. The settings on record: HIS-MK2 0.013 nM, ATP 10 μM, 60 min at 30° C.

Structures can show the parent of a compound that is named as a salt.

Broadly, the IC50 is the midpoint of a concentration-inhibition curve.

human MK2, sequence (P49137 whole entry): as above

In the case of `O=C1NC2(CC2)Cc2[nH]c3c(c21)CCc1cnc(-c2cncc(F)c2)cc1-3` [Example 89, 2-(1-Amino-cyclopropylmethyl)-8-(5-fluoro-pyridin-3-yl)-4,5-dihydro-1H-pyrrolo[2,3-f]isoquinoline-3-carboxylic acid lactam], at human MK2, the midpoint of inhibition, the IC50, lay at 0.079 µM.
Turning to `CN1CCN(c2ccc(-c3cc4c(cn3)CCc3c-4[nH]c4c3C(=O)NCC43CC3)cc2C#N)CC1` [Example 306, 2-(4-Methyl-piperazin-1-yl)-5-(7-oxo-10-spirocyclopropyl-6,7,8,9,10,11-hexahydro-5H-3,8,11-triaza-benzo[a]fluoren-2-yl)-benzonitrile], the IC50 against human MK2 amounted to 0.009 µM.
As to `COCCOc1cncc(-c2cc3c(cn2)CCc2c-3[nH]c3c2C(=O)NC2(CCC2)C3)c1` [Example 3, 2-(1-Amino-cyclobutylmethyl)-8-[5-(2-methoxy-ethoxy)-pyridin-3-yl]-4,5-dihydro-1H-pyrrolo[2,3-f]isoquinoline-3-carboxylic acid lactame], at human MK2, the midpoint of inhibition, the IC50, lay at 0.063 µM.
The compound `COc1ccc(-c2ncc3c(n2)-c2[nH]c4c(c2CC3)C(=O)NC2(CNC2)C4)cc1` [Example 18, 2-(3-Amino-azetidin-3-ylmethyl)-8-(4-methoxy-phenyl)-4,5-dihydro-1H-1,7,9-triaza-cyclopenta[a]naphthalene-3-carboxylic acid lactame hydrochloride] had an IC50 against human MK2 of 0.018 µM.
Take `N#Cc1cc(-c2cc3c(cn2)CCc2c-3[nH]c3c2C(=O)NCC32CC2)ccc1OCCN1CCOCC1` [Example 305, 2-(2-Morpholin-4-yl-ethoxy)-5-(7-oxo-10-spirocyclopropyl-6,7,8,9,10,11-hexahydro-5H-3,8,11-triaza-benzo[a]fluoren-2-yl)-benzonitrile]: half-maximal inhibition on human MK2 (IC50) was put at 0.012 µM.
The compound `COCc1ccc(CNC(=O)c2cccc(-c3cc4c(cn3)CCc3c-4[nH]c4c3C(=O)NC3(CC3)C4)c2)cc1` [Example 273] showed an IC50 against human MK2 of 0.019 µM.
As for `COc1ccc(CNC(=O)c2cccc(-c3cc4c(cn3)CCc3c-4[nH]c4c3C(=O)NC3(CC3)C4)c2)cn1` [Example 274], the IC50 at human MK2 was determined as 0.016 µM.
`COCCOc1cc(-c2cc3c(cn2)CCc2c-3[nH]c3c2C(=O)NCC32CC2)ccc1F` [Example 310, 2-[4-Fluoro-3-(2-methoxy-ethoxy)-phenyl]-10-spirocyclopropyl-5,6,8,9,10,11-hexahydro-3,8,11-triaza-benzo[a]fluoren-7-one] registered an IC50 against human MK2 of 0.097 µM.
On to `O=C1NC2(CC2)Cc2[nH]c3c(c21)CCc1cnc(-c2cccnc2)cc1-3` [Example 93, 2-(1-Amino-cyclopropylmethyl)-8-pyridin-3-yl-4,5-dihydro-1H-pyrrolo[2,3-f]isoquinoline-3-carboxylic acid lactam], for which, on human MK2, inhibition was half-maximal at 0.051 µM (IC50).
Turning to `Cn1c2c(c3c1-c1cc(-c4cncc(-c5ccc(F)cc5)c4)ncc1CC3)C(=O)NC1(CNC1)C2` [Example 136, 2-(3-Amino-azetidin-3-ylmethyl)-8-[5-(4-fluoro-phenyl)-pyridin-3-yl]-1-methyl-4,5-dihydro-1H-pyrrolo[2,3-f]isoquinoline-3-carboxylic acid lactam hydrochloride], in assay [1], the IC50 was 0.023 µM.
With `COc1ccc(-c2cc3c(cn2)CCc2c-3[nH]c3c2C(=O)NCC32CC2)cn1` [Example 54, 2-(1-Aminomethyl-cyclopropyl)-8-(6-methoxy-pyridin-3-yl)-4,5-dihydro-1H-pyrrolo[2,3-f]isoquinoline-3-carboxylic acid lactam], the IC50 in assay [1] was 0.022 µM.
Take `Cn1c2c(c3c1C1(CNC1)CNC3=O)CCc1cnc(-c3cccc(F)c3)nc1-2` [Example 203, 2-(3-Aminomethyl-azetidin-3-yl)-8-(3-fluoro-phenyl)-1-methyl-4,5-dihydro-1H-1,7,9-triaza-cyclopenta[a]naphthalene-3-carboxylic acid lactam hydrochloride]: in assay [1], the IC50 was 0.034 µM.
On the same count and under the same terms, as for `CN1CC2(C1)c1[nH]c3c(c1C(=O)NC21CC1)CCc1cnc(-c2ccc(C(F)(F)F)nc2)cc1-3` [Example 222, 2-[3-(1-Amino-cyclopropyl)-1-methyl-azetidin-3-yl]-8-(6-trifluoromethyl-pyridin-3-yl)-4,5-dihydro-1H-pyrrolo[2,3-f]isoquinoline-3-carboxylic acid lactam], the figure is under 0.003 µM.
Consider `Cc1ccc(-c2cc3c(cn2)CCc2c-3[nH]c3c2C(=O)NC2(CC2)C3)c(F)n1` [Example 158, 2-(1-Amino-cyclopropylmethyl)-8-(2-fluoro-6-methyl-pyridin-3-yl)-4,5-dihydro-1H-pyrrolo[2,3-f]isoquinoline-3-carboxylic acid lactam], for which the IC50 in assay [1] was 0.051 µM.
`N#Cc1cc(-c2cc3c(cn2)CCc2c-3[nH]c3c2C(=O)NCC32CC2)ccc1F` [Example 115]: in assay [1], the IC50 amounted to 0.036 µM.
Still for that read-out and setting: as for `O=C1NC2(CCC2)Cc2[nH]c3c(c21)CCc1cnc(-c2ccc(OCCN4CCOCC4)cc2)cc1-3` [Example 231, 2-(1-Amino-cyclobutylmethyl)-8-[4-(2-morpholin-4-yl-ethoxy)-phenyl]-4,5-dihydro-1H-pyrrolo[2,3-f]isoquinoline-3-carboxylic acid lactam], the figure is 0.072 µM.
As for `Cn1c2c(c3c1-c1nc(-c4cncc(C(=O)NCc5ccccc5)c4)ncc1CC3)C(=O)NC1(CNC1)C2` [Example 296, 2-(3-Amino-azetidin-3-ylmethyl)-8-(3-benzylcarbamoyl-3-pyridyl)-1-methyl-4,5-dihydro-1H-1,7,9-triaza-cyclopenta[a]naphthalene-3-carboxylic acid lactam hydrochloride], in assay [1], the IC50 was determined as 0.017 µM.
Take `COc1ccc(-c2cc3c(cn2)CCc2c-3[nH]c3c2C(=O)NC2(CC2)C32CN(C)C2)cn1` [Example 255, 2-[3-(1-Amino-cyclopropyl)-1-methyl-azetidin-3-yl]-8-(6-methoxy-pyridin-3-yl)-4,5-dihydro-1H-pyrrolo[2,3-f]isoquinoline-3-carboxylic acid lactam]: the IC50 in assay [1] is under 0.003 µM.
Regarding `O=C1NC2(CC2)C2(CC2)c2[nH]c3c(c21)CCc1cnc(-c2ccc(N4CCNCC4)cc2)cc1-3` [Example 220, 2-(1′-Amino-bicyclopropyl-1-yl)-8-(4-piperazin-1-yl-phenyl)-4,5-dihydro-1H-pyrrolo[2,3-f]isoquinoline-3-carboxylic acid lactam hydrochloride], the IC50 in assay [1] turned out to be 0.026 µM.
Still for that read-out and setting: in the case of `CN1CC2(CNC(=O)c3c4c(n(C)c32)-c2cc(-c3cccc(Cl)c3)ncc2CC4)C1` [Example 190, 2-[3-Aminomethyl-1-methyl-azetidin-3-yl]-8-(3-chloro-phenyl)-1-methyl-4,5-dihydro-1H-pyrrolo[2,3-f]isoquinoline-3-carboxylic acid lactam] it was 0.007 µM; in that of `COc1ccc(-c2cc3c(cn2)CCc2c4c(n(C)c2-3)C2(CNC4=O)CN(C)C2)cc1` [Example 164, 2-(3-Aminomethyl-1-methyl-azetidin-3-yl)-8-(4-methoxy-phenyl)-1-methyl-4,5-dihydro-1H-pyrrolo[2,3-f]isoquinoline-3-carboxylic acid lactam], 0.022 µM.
Consider `Cc1ccc(-c2cc3c(cn2)CCc2c4c(n(C)c2-3)CC2(CN(C)C2)NC4=O)cn1` [Example 150, 2-(3-Amino-1-methyl-azetidin-3-ylmethyl)-8-(6-methyl-pyridin-3-yl)-1-methyl-4,5-dihydro-1H-pyrrolo[2,3-f]isoquinoline-3-carboxylic acid lactam], for which the IC50 in assay [1] was 0.092 µM.
